In PubChem BioAssay (NCI):
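Each compound was tested at five concentrations against cells in 96-well plates for 48 hours. GI50 is the concentration that inhibits growth by half. TGI marks complete inhibition of growth.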

How the values were obtained:
Assay in all cases: NCI anticancer screen, dose series, 48 h
LOX IMVI melanoma = tested on: LOX IMVI melanoma
SK-MEL-28 melanoma = tested on: SK-MEL-28 melanoma
OVCAR-8 ovarian = tested on: OVCAR-8 ovarian
EKVX NSCLC = tested on: EKVX NSCLC
SW-620 colon = tested on: SW-620 colon
TK-10 renal = tested on: TK-10 renal
HCT-116 colon = tested on: HCT-116 colon
HCT-15 colon = tested on: HCT-15 colon
M14 melanoma = tested on: M14 melanoma
ACHN renal = tested on: ACHN renal
SF-539 CNS = tested on: SF-539 CNS
BT-549 breast = tested on: BT-549 breast
MDA-MB-435 = tested on: MDA-MB-435
NCI-H23 lung = tested on: NCI-H23 lung
SF-268 CNS = tested on: SF-268 CNS
HCC-2998 colon = tested on: HCC-2998 colon
NCI-H460 lung = tested on: NCI-H460 lung
HOP-92 NSCLC = tested on: HOP-92 NSCLC
CCRF-CEM leukemia = tested on: CCRF-CEM leukemia
UO-31 renal = tested on: UO-31 renal
SN12C renal = tested on: SN12C renal
HS 578T breast = tested on: HS 578T breast
T-47D breast = tested on: T-47D breast
HL-60(TB) leukemia = tested on: HL-60(TB) leukemia
K-562 leukemia = tested on: K-562 leukemia
SF-295 CNS = tested on: SF-295 CNS
DU-145 prostate = tested on: DU-145 prostate
786-0 renal = tested on: 786-0 renal
CAKI-1 renal = tested on: CAKI-1 renal
HT29 colon = tested on: HT29 colon
SNB-19 CNS = tested on: SNB-19 CNS
COLO 205 colon = tested on: COLO 205 colon
RXF 393 renal = tested on: RXF 393 renal
IGROV1 ovarian = tested on: IGROV1 ovarian
RPMI-8226 leukemia = tested on: RPMI-8226 leukemia
SNB-75 CNS = tested on: SNB-75 CNS
SK-MEL-5 melanoma = tested on: SK-MEL-5 melanoma
PC-3 prostate = tested on: PC-3 prostate
A498 renal = tested on: A498 renal
KM12 colon = tested on: KM12 colon
UACC-62 melanoma = tested on: UACC-62 melanoma
MDA-MB-231 breast = tested on: MDA-MB-231 breast
SK-OV-3 ovarian = tested on: SK-OV-3 ovarian
UACC-257 melanoma = tested on: UACC-257 melanoma
MALME-3M melanoma = tested on: MALME-3M melanoma
MCF7 breast = tested on: MCF7 breast
MOLT-4 leukemia = tested on: MOLT-4 leukemia
U251 CNS = tested on: U251 CNS
OVCAR-5 ovarian = tested on: OVCAR-5 ovarian
SK-MEL-2 melanoma = tested on: SK-MEL-2 melanoma
NCI-H226 lung = tested on: NCI-H226 lung
NCI-H522 lung = tested on: NCI-H522 lung
SR leukemia = tested on: SR leukemia
OVCAR-3 ovarian = tested on: OVCAR-3 ovarian
A549 NSCLC = tested on: A549 NSCLC
HOP-62 NSCLC = tested on: HOP-62 NSCLC
NCI/ADR-RES ovarian = tested on: NCI/ADR-RES ovarian

Q: `Cn1cnc([N+](=O)[O-])c1S(=O)(=O)Oc1ccc(Cl)cc1` was tested. Which GI50 (LOX IMVI melanoma) did it give?
A: 1.73 µM

Q: What about the TGI (LOX IMVI melanoma) of the same compound?
A: 3.57 µM

Q: What about the GI50 (SK-MEL-28 melanoma) of the same compound?
A: 19.2 µM

Q: What about the TGI (SK-MEL-28 melanoma) of the same compound?
A: 51.8 µM

Q: What about the GI50 (OVCAR-8 ovarian) of the same compound?
A: 18.8 µM

Q: What about the TGI (OVCAR-8 ovarian) of the same compound?
A: 97.1 µM

Q: What about the GI50 (EKVX NSCLC) of the same compound?
A: 19.1 µM

Q: What about the TGI (EKVX NSCLC) of the same compound?
A: 49.6 µM

Q: What about the GI50 (SW-620 colon) of the same compound?
A: 1.69 µM

Q: What about the TGI (SW-620 colon) of the same compound?
A: 3.29 µM

Q: And the GI50 (TK-10 renal)?
A: 27.8 µM

Q: What about the TGI (TK-10 renal) of the same compound?
A: > 100 µM

Q: What about the GI50 (HCT-116 colon) of the same compound?
A: 8.59 µM

Q: What about the TGI (HCT-116 colon) of the same compound?
A: 21.8 µM

Q: And the GI50 (HCT-15 colon)?
A: 1.64 µM

Q: And the TGI (HCT-15 colon)?
A: 3.47 µM

Q: What about the GI50 (M14 melanoma) of the same compound?
A: 2.36 µM

Q: What about the TGI (M14 melanoma) of the same compound?
A: 5.21 µM

Q: What about the GI50 (ACHN renal) of the same compound?
A: 1.8 µM

Q: And the TGI (ACHN renal)?
A: 3.28 µM

Q: And the GI50 (SF-539 CNS)?
A: 7.11 µM

Q: And the TGI (SF-539 CNS)?
A: 21 µM

Q: And the GI50 (BT-549 breast)?
A: 13.3 µM

Q: And the TGI (BT-549 breast)?
A: 28.8 µM

Q: What about the GI50 (MDA-MB-435) of the same compound?
A: 16.2 µM

Q: What about the TGI (MDA-MB-435) of the same compound?
A: 36.2 µM

Q: And the GI50 (NCI-H23 lung)?
A: 8.88 µM

Q: And the TGI (NCI-H23 lung)?
A: 25.6 µM

Q: What about the GI50 (SF-268 CNS) of the same compound?
A: 15.7 µM

Q: And the TGI (SF-268 CNS)?
A: 38.1 µM

Q: What about the GI50 (HCC-2998 colon) of the same compound?
A: 15.9 µM

Q: And the TGI (HCC-2998 colon)?
A: 30.2 µM

Q: What about the GI50 (NCI-H460 lung) of the same compound?
A: 32.3 µM

Q: And the TGI (NCI-H460 lung)?
A: > 100 µM

Q: And the GI50 (HOP-92 NSCLC)?
A: 1.61 µM

Q: And the TGI (HOP-92 NSCLC)?
A: 3.37 µM

Q: What about the GI50 (CCRF-CEM leukemia) of the same compound?
A: 2.33 µM

Q: What about the TGI (CCRF-CEM leukemia) of the same compound?
A: 7.05 µM

Q: What about the GI50 (UO-31 renal) of the same compound?
A: 2.36 µM

Q: What about the TGI (UO-31 renal) of the same compound?
A: 8.75 µM

Q: What about the GI50 (SN12C renal) of the same compound?
A: 13.2 µM

Q: And the TGI (SN12C renal)?
A: 30.8 µM

Q: What about the GI50 (HS 578T breast) of the same compound?
A: 19.6 µM

Q: And the TGI (HS 578T breast)?
A: 68.1 µM

Q: And the GI50 (T-47D breast)?
A: 2.21 µM

Q: What about the TGI (T-47D breast) of the same compound?
A: 6.3 µM

Q: And the GI50 (HL-60(TB) leukemia)?
A: 1.85 µM

Q: And the TGI (HL-60(TB) leukemia)?
A: 3.77 µM

Q: And the GI50 (K-562 leukemia)?
A: 2.99 µM

Q: What about the TGI (K-562 leukemia) of the same compound?
A: 10.2 µM

Q: What about the GI50 (SF-295 CNS) of the same compound?
A: 25.2 µM

Q: What about the TGI (SF-295 CNS) of the same compound?
A: > 100 µM

Q: What about the GI50 (DU-145 prostate) of the same compound?
A: 4.75 µM

Q: What about the TGI (DU-145 prostate) of the same compound?
A: 17.8 µM

Q: What about the GI50 (786-0 renal) of the same compound?
A: 17 µM

Q: And the TGI (786-0 renal)?
A: 33 µM

Q: And the GI50 (CAKI-1 renal)?
A: 1.67 µM

Q: And the TGI (CAKI-1 renal)?
A: 3.51 µM

Q: And the GI50 (HT29 colon)?
A: 2.33 µM

Q: And the TGI (HT29 colon)?
A: 5.36 µM

Q: And the GI50 (SNB-19 CNS)?
A: > 100 µM

Q: And the TGI (SNB-19 CNS)?
A: > 100 µM

Q: And the GI50 (COLO 205 colon)?
A: 0.546 µM

Q: And the TGI (COLO 205 colon)?
A: 2.09 µM

Q: What about the GI50 (RXF 393 renal) of the same compound?
A: 2.77 µM

Q: And the TGI (RXF 393 renal)?
A: 8.01 µM

Q: And the GI50 (IGROV1 ovarian)?
A: 2.14 µM

Q: What about the TGI (IGROV1 ovarian) of the same compound?
A: 5.58 µM

Q: And the GI50 (RPMI-8226 leukemia)?
A: 3.58 µM

Q: What about the TGI (RPMI-8226 leukemia) of the same compound?
A: 17.7 µM

Q: What about the GI50 (SNB-75 CNS) of the same compound?
A: 14.1 µM

Q: What about the TGI (SNB-75 CNS) of the same compound?
A: 29.7 µM

Q: What about the GI50 (SK-MEL-5 melanoma) of the same compound?
A: 15.7 µM

Q: And the TGI (SK-MEL-5 melanoma)?
A: 32.3 µM

Q: What about the GI50 (PC-3 prostate) of the same compound?
A: 17.2 µM

Q: What about the TGI (PC-3 prostate) of the same compound?
A: 49.2 µM

Q: And the GI50 (A498 renal)?
A: 17 µM

Q: And the TGI (A498 renal)?
A: 42.5 µM

Q: And the GI50 (KM12 colon)?
A: 23 µM

Q: And the TGI (KM12 colon)?
A: 91.4 µM

Q: And the GI50 (UACC-62 melanoma)?
A: 13.2 µM

Q: And the TGI (UACC-62 melanoma)?
A: 29.1 µM

Q: And the GI50 (MDA-MB-231 breast)?
A: 2.8 µM

Q: What about the TGI (MDA-MB-231 breast) of the same compound?
A: 5.99 µM

Q: And the GI50 (SK-OV-3 ovarian)?
A: 50.5 µM

Q: What about the TGI (SK-OV-3 ovarian) of the same compound?
A: > 100 µM

Q: And the GI50 (UACC-257 melanoma)?
A: 3.59 µM

Q: And the TGI (UACC-257 melanoma)?
A: 16.6 µM

Q: And the GI50 (MALME-3M melanoma)?
A: 1.99 µM

Q: What about the TGI (MALME-3M melanoma) of the same compound?
A: 4.15 µM

Q: And the GI50 (MCF7 breast)?
A: 22.9 µM

Q: What about the TGI (MCF7 breast) of the same compound?
A: 96.1 µM

Q: What about the GI50 (MOLT-4 leukemia) of the same compound?
A: 2.25 µM

Q: And the TGI (MOLT-4 leukemia)?
A: 5.26 µM

Q: And the GI50 (U251 CNS)?
A: 16.6 µM

Q: What about the TGI (U251 CNS) of the same compound?
A: 55.8 µM

Q: And the GI50 (OVCAR-5 ovarian)?
A: 15.6 µM

Q: And the TGI (OVCAR-5 ovarian)?
A: 39.1 µM

Q: And the GI50 (SK-MEL-2 melanoma)?
A: 18.7 µM

Q: And the TGI (SK-MEL-2 melanoma)?
A: 61.1 µM

Q: What about the GI50 (NCI-H226 lung) of the same compound?
A: 18.6 µM

Q: And the TGI (NCI-H226 lung)?
A: 58 µM

Q: And the GI50 (NCI-H522 lung)?
A: 1.82 µM

Q: What about the TGI (NCI-H522 lung) of the same compound?
A: 4.22 µM

Q: And the GI50 (SR leukemia)?
A: 1.85 µM

Q: And the TGI (SR leukemia)?
A: 4.36 µM

Q: And the GI50 (OVCAR-3 ovarian)?
A: 1.86 µM

Q: And the TGI (OVCAR-3 ovarian)?
A: 3.42 µM

Q: And the GI50 (A549 NSCLC)?
A: 58.2 µM

Q: And the TGI (A549 NSCLC)?
A: > 100 µM

Q: What about the GI50 (HOP-62 NSCLC) of the same compound?
A: 16.1 µM

Q: And the TGI (HOP-62 NSCLC)?
A: 39 µM

Q: And the GI50 (NCI/ADR-RES ovarian)?
A: 11.7 µM

Q: What about the TGI (NCI/ADR-RES ovarian) of the same compound?
A: 64.3 µM
